Data on one compound can be found in patent publication US20220143224A1, “MRI CONTRAST AGENT FOR USE IN THE DIAGNOSIS OF EARLY CHANGES IN THE ENDOTHELIUM OF BLOOD VESSELS” (UNIWERSYTET JAGIELLONSKI, priority 2019, published 2022).

Test [1] deals with abdominal aorta (AA) in ApoE/LDLR−/− mice. Description: MRI-based endothelium-dependent response to acetylcholine in abdominal aorta. Type of test: in vivo. As to conditions: for AA volume change: intraperitoneal Ach, 25 minutes after administration; for change in AA volume: paradoxical vasoconstriction. The method, then: (§1) The experiments were performed using female ApoE/LDLR−/− mice of different ages: 4-, 6-, 8-, 12- and 28-week-old(19) in comparison to control young (8-week-old) mice (C57BL/6) without endothelial dysfunction. All mice (body weight 20-30 g) were housed under standard pathogen-free conditions (LD: 12/12, humidity: 60%, temperature: 23° C.).
(§2) MRI experiments were carried out using a 9.4 T scanner (BioSpec 94/20 USR, Bruker, Germany). During the experiment, mice were anesthetized using isoflurane (Aerrane, Baxter Sp. z o.o., Poland, 1.5% by volume) in an oxygen and air mixture (1:2). Cardiac activity, respiration rate and body temperature (maintained at 37° C., using circulating warm water) were monitored using Monitoring and Gating System (SA Inc., Stony Brook, N.Y., USA). Mice were imaged in the supine position to test endothelial function and permeability in various blood vessels.
(§3) Endothelium-dependent response to acetylcholine (Ach), expressed as changes in vessel volume, was assessed in the brachiocephalic artery (BCA) visible on the 3D image of the aortic arch (A) and in the abdominal aorta (AA) positioned on the sagittal view of the mouse (B). Assessment of vessel response to flow-mediated dilation (FMD), also expressed as changes in vessel volume, was performed in the femoral artery (FA), visible on the 3D image of the left hind limb (D). Pixels for which T1 had changed more than 50% after CA (Npx50) were marked in red on a representative cross-sectional image of blood vessels arising from the aortic arch (C).
To assess the sensitivity of endothelial dysfunction detection using the new contrast agent, being an invention, impaired endothelial function in ApoE/LDLR−/− mice was also assessed by other MRI-based techniques; detection of endothelium-dependent response to acetylcholine (FIG. 5) and measurement of increase in flow after short-term vessel occlusion (FMD, FIG. 6). As described in our recent publication(22), endothelium-dependent response to acetylcholine (Ach, FIG. 5B) in abdominal aorta (AA) is the most sensitive in vivo method to detect changes in endothelial phenotype. […]
Changes in the end-diastolic volume of brachiocephalic artery (A: BCA-ACH) and abdominal aorta (B: AA-ACH) 25 minutes after administration of acetylcholine in ApoE/LDLR−/− mice (white columns) of different ages: 4-week-old ApoE/LDLR−/− mice, 6-week-old ApoE/LDLR−/− mice, 8-week-old ApoE/LDLR−/− mice, 12-week-old ApoE/LDLR−/− mice, 28-week-old ApoE/LDLR−/− mice as compared to 8-week-old control C57BL/6 mice, (C57_8W, n=4, black columns). Statistics: one-way ANOVA followed by Tukey's post hoc test (normality was assessed using the Shapiro-Wilk test); *p<0.05, **p<0.01, ***p<0.001.

Test [2] concerns brachiocephalic artery (BCA) in ApoE/LDLR−/− mice. Description: MRI-based endothelium-dependent response to acetylcholine in brachiocephalic artery. Type of test: in vivo. The method, then:
as §1, §2, §3
To assess the sensitivity of endothelial dysfunction detection using the new contrast agent, being an invention, impaired endothelial function in ApoE/LDLR−/− mice was also assessed by other MRI-based techniques; detection of endothelium-dependent response to acetylcholine (FIG. 5) and measurement of increase in flow after short-term vessel occlusion (FMD, FIG. 6). […]

Regarding `CC(=O)OCC[N+](C)(C)C` [Ach, acetylcholine], the AA volume change entry in test [1] (4-week-old ApoE/LDLR−/− mice) was “about 23%”; in test [1] (control mice (8-week-old C57BL/6)) it was “about 34%”. Further, the “change in AA volume” value in test [1] (12-week-old ApoE/LDLR−/− mice) was “about −8%”; in test [1] (28-week-old ApoE/LDLR−/− mice), ~−23%. Also, the “changes in BCA volume” value in test [2] (4 to 8-week-old ApoE/LDLR−/− mice) was “approximately 10%”. The “volume change in the BCA” value in test [2] (8-week-old control mice (C57BL/6)) was determined as 11.26%. Moreover, the BCA volume changes result in test [2] (12-week-old ApoE/LDLR−/− mice) is “about 2%”.
